# Experimental data published in US8273754B2, “Substituted 1H-pyrazolo[3,4-D]pyrimidine-6-amine compounds” (ArQule, Inc., priority 2008, dated 2012).
# Where two headings read alike, the source gives them in different places.
# How the values were obtained:
# [1] = tested on: cancer cells; test: MTS cell growth inhibition assay (72 hours); assay type: cell-based
# Summary of the method: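 Growth inhibition read as formazan absorbance at 492 nm after 4 h MTS/PMS, following 72 h compound exposure at 37 °C in 1% FBS DMEM (cells pre-seeded 18 h). IC50 = 50% absorbance reduction; inhibition graded in bands.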
# [2] = biological target: T1, FGFR2 (N549H) (Homo sapiens, UniProt P21802, N549H); test: fluorescent ELISA assay for inhibitors of FGFR2 kinase; assay type: biochemical; conditions: Pyk2 peptide substrate, 60 minutes
# T1 construct: purchased Millipore 14-742
# T1 sequence (P21802 22-821 N549H): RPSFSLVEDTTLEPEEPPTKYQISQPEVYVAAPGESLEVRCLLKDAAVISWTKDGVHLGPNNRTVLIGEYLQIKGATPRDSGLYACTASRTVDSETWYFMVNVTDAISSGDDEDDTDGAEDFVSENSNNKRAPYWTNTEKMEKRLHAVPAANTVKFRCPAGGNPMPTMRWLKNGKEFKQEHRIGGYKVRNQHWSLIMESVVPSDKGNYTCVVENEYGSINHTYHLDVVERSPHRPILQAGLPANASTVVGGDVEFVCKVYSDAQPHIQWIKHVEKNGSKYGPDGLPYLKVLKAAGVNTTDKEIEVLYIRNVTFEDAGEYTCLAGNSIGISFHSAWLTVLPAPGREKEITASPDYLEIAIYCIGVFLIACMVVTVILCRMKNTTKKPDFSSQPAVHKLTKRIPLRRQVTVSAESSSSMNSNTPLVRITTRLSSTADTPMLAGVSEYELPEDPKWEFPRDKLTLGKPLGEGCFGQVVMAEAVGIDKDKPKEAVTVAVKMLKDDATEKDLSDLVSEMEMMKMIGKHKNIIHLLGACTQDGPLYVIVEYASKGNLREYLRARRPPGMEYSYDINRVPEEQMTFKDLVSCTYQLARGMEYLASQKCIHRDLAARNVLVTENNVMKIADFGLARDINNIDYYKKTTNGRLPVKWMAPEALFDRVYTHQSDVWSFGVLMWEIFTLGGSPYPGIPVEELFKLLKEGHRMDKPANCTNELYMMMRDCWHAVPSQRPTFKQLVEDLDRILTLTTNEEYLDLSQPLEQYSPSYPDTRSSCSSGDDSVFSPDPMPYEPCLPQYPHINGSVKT
# Method: The enzymatic assays described herein are conducted according to the following procedures from commercially available reagents. In one non-limiting example, a fluorescent ELISA assay is used to identify and characterize inhibitors of FGFR2 kinase as described herein. This heterogeneous assay utilizes a biotinylated peptide with a tyrosine motif as a substrate and an anti-phospho-tyrosine antibody to measure phosphorylation of the substrate. The reaction is initiated by adding the test compound, 37 μM Pyk2 substrate (Midwest Biotech, Cat. #MBT2383), 12.5 μM ATP (Roche, Cat. #11 140 965 001) and 0.5 μM FGFR2 enzyme (Millipore, Cat. #14-742) sequentially to a non-binding polypropylene V-well plate. All reagents are in an assay buffer consisting of: 50 mM Tris-HCL, 0.02 mg/ml BSA, 10 mM MgCl2, 0.1 mM Na3VO4, 1 mM EGTA, 75 μM ATP, 0.01% NP-40, 2 mM DTT and 10% glycerol. The reaction is incubated for 60 minutes. As the reaction proceeds, FGFR2 phosphorylates tyrosines in the peptide. The reaction mixture is then moved to a blocked streptavidin-coated Nunc Maxisorb plate (coated with 100 ng streptavidin from Pierce (Cat. #15-124) per well), allowing for the capture of the biotinylated peptide. Peptides are captured for 30 minutes at room temperature, the phosphorylation of peptides continues during this phase. The reaction is stopped by washing the streptavidin-coated plate 6 times with TBST. Phosphorylated peptide is detected by adding anti-phospho-tyrosine antibody (Cell Signaling, Cat. #9411, diluted 1:3000) to the streptavidin-coated plate. Unbound anti-phospho-tyrosine antibody is removed by washing the streptavidin-coated plate 6 times with TBST. Secondary detection is performed using alkaline phosphatase tagged goat anti-mouse antibody (Pierce, Cat. #31320, diluted 1:4000) for one hour. Unbound secondary antibody is removed by washing the streptavidin-coated plate 6 times with TBST. The fluorescent readout is initiated by adding to the streptavidin-coated plate Promega Attophos substrate (Promega, Cat. #S1000, dilution=6 mg/10 ml), which, when dephosphorylated by alkaline phosphatase, emits a fluorescent signal of 595 nm in wavelength when excited by a signal of 400 nm in wavelength. The reading of the 595 nm signal is done on the Perkin Elmer Envision system. Compounds which prevent FGFR2 from phosphorylating the peptide result in a lower fluorescent signal. The 595 nm fluorescent signal is directly proportional to the activity of FGFR2. Thus, the inhibition of FGFR2 by compounds is monitored by the decrease in the 595 nm fluorescent signal.
# [3] = Homo sapiens, DLD-1, 72 h, DLD-1 cells, read-out: DLD-1 MTS 72 hr at 10 μM
# [4] = Homo sapiens, KATO III, 72 h, KATO III cells, read-out: KATO III MTS 72 hr at 10 μM
# [5] = Homo sapiens, MDA-MB-231, 72 h, MDA-MB-231 cells, read-out: MDA-MB-231 MTS 72 hr at 10 μM
# [6] = Homo sapiens, NCI-H1299, 72 h, NCI-H1299 cells, read-out: NCI-H1299 MTS 72 hr at 10 μM
# [7] = PaCa-2, 72 h, PACA-2 cells, read-out: PACA-2 MTS 72 hr at 10 μM
structure (smiles),measurement,setting,value
"Nc1nc(NC2Cc3ccccc3N(S(=O)(=O)c3ccccc3Cl)C2)c2cn[nH]c2n1 (stereo not drawn) [Compound 52, N4-(1-(2-chlorophenylsulfonyl)-1,2,3,4-tetrahydroquinolin-3-yl)-1H-pyrazolo[3,4-d]pyrimidine-4,6-diamine]",inhibition at 10 µM,[1]; [3],< 50%
same,inhibition at 10 µM,[1]; [4],< 50%
same,inhibition at 10 µM,[1]; [5],< 50%
same,inhibition at 10 µM,[1]; [6],< 50%
same,inhibition at 10 µM,[1]; [7],< 50%
same,IC50,[2],1.2 µM
"Nc1nc(NC2Cc3ccccc3N(S(=O)(=O)c3cccc4cccnc34)C2)c2cn[nH]c2n1 (stereo not drawn) [Compound 28, N4-(1-(quinolin-8-ylsulfonyl)-1,2,3,4-tetrahydroquinolin-3-yl)-1H-pyrazolo[3,4-d]pyrimidine-4,6-diamine]",inhibition at 10 µM,[1]; [3],< 50%
same,inhibition at 10 µM,[1]; [4],< 50%
same,inhibition at 10 µM,[1]; [5],< 50%
same,inhibition at 10 µM,[1]; [6],< 50%
same,inhibition at 10 µM,[1]; [7],< 50%
same,IC50,[2],21.5 µM
"Cc1ccc(-c2ccc(S(=O)(=O)N3CC(Nc4nc(N)nc5[nH]ncc45)Cc4ccccc43)cc2)cc1 (stereo not drawn) [Compound 50, N4-(1-(4′-methylbiphenyl-4-ylsulfonyl)-1,2,3,4-tetrahydroquinolin-3-yl)-1H-pyrazolo[3,4-d]pyrimidine-4,6-diamine]",inhibition at 10 µM,[1]; [3],50 to 79%
same,inhibition at 10 µM,[1]; [4],50 to 79%
same,inhibition at 10 µM,[1]; [5],< 50%
same,inhibition at 10 µM,[1]; [6],< 50%
same,inhibition at 10 µM,[1]; [7],50 to 79%
same,IC50,[2],> 30 µM
"CC(=O)Nc1ccc(S(=O)(=O)N2CC(Nc3nc(N)nc4[nH]ncc34)Cc3ccccc32)cc1 (stereo not drawn) [Compound 40, N-(4-(3-(6-amino-1H-pyrazolo[3,4-d]pyrimidin-4-ylamino)-3,4-dihydroquinolin-1(2H)-ylsulfonyl)phenyl)acetamide]",inhibition at 10 µM,[1]; [3],< 50%
same,inhibition at 10 µM,[1]; [4],< 50%
same,inhibition at 10 µM,[1]; [5],< 50%
same,inhibition at 10 µM,[1]; [6],< 50%
same,inhibition at 10 µM,[1]; [7],< 50%
same,IC50,[2],> 30 µM
"COc1cccc(CN2CC(Nc3nc(N)nc4[nH]ncc34)Cc3ccccc32)c1 (stereo not drawn) [Compound 127, N4-[1-(3-methoxybenzyl)-1,2,3,4-tetrahydroquinolin-3-yl]-1H-pyrazolo[3,4-d]pyrimidine-4,6-diamine]",inhibition at 10 µM,[1]; [3],< 50%
same,inhibition at 10 µM,[1]; [4],50 to 79%
same,inhibition at 10 µM,[1]; [5],< 50%
same,inhibition at 10 µM,[1]; [6],< 50%
same,inhibition at 10 µM,[1]; [7],50 to 79%
same,IC50,[2],11 µM
"Nc1nc(NC2Cc3ccccc3N(S(=O)(=O)c3cccc4ccccc34)C2)c2cn[nH]c2n1 (stereo not drawn) [Compound 31, N4-(1-(naphthalen-1-ylsulfonyl)-1,2,3,4-tetrahydroquinolin-3-yl)-1H-pyrazolo[3,4-d]pyrimidine-4,6-diamine]",inhibition at 10 µM,[1]; [3],< 50%
same,inhibition at 10 µM,[1]; [4],> 79%
same,inhibition at 10 µM,[1]; [5],< 50%
same,inhibition at 10 µM,[1]; [6],< 50%
same,inhibition at 10 µM,[1]; [7],< 50%
same,IC50,[2],3.35 µM
"Cc1noc(C)c1S(=O)(=O)N1CC(Nc2nc(N)nc3[nH]ncc23)Cc2ccccc21 (stereo not drawn) [Compound 15, N4-(1-(3,5-dimethylisoxazol-4-ylsulfonyl)-1,2,3,4-tetrahydroquinolin-3-yl)-1H-pyrazolo[3,4-d]pyrimidine-4,6-diamine]",inhibition at 10 µM,[1]; [3],> 79%
same,inhibition at 10 µM,[1]; [4],> 79%
same,inhibition at 10 µM,[1]; [5],> 79%
same,inhibition at 10 µM,[1]; [6],> 79%
same,inhibition at 10 µM,[1]; [7],> 79%
same,IC50,[2],> 30 µM
"Nc1nc(NC2Cc3ccccc3N(S(=O)(=O)c3csc4ccccc34)C2)c2cn[nH]c2n1 (stereo not drawn) [Compound 51, N4-(1-(benzo[b]thiophen-3-ylsulfonyl)-1,2,3,4-tetrahydroquinolin-3-yl)-1H-pyrazolo[3,4-d]pyrimidine-4,6-diamine]",inhibition at 10 µM,[1]; [3],< 50%
same,inhibition at 10 µM,[1]; [4],50 to 79%
same,inhibition at 10 µM,[1]; [5],< 50%
same,inhibition at 10 µM,[1]; [6],< 50%
same,inhibition at 10 µM,[1]; [7],50 to 79%
same,IC50,[2],3.85 µM
"Nc1nc(NC2Cc3ccccc3N(S(=O)(=O)c3cc(F)ccc3F)C2)c2cn[nH]c2n1 (stereo not drawn) [Compound 55, N4-(1-(2,5-difluorophenylsulfonyl)-1,2,3,4-tetrahydroquinolin-3-yl)-1H-pyrazolo[3,4-d]pyrimidine-4,6-diamine]",inhibition at 10 µM,[1]; [3],> 79%
same,inhibition at 10 µM,[1]; [4],50 to 79%
same,inhibition at 10 µM,[1]; [5],50 to 79%
same,inhibition at 10 µM,[1]; [6],< 50%
same,inhibition at 10 µM,[1]; [7],> 79%
same,IC50,[2],0.19 µM
